Test results from ChEMBL document CHEMBL2434821, “New phenstatin-fatty acid conjugates: synthesis and evaluation” (Bioorg Med Chem Lett, 2013).
Calls of active or inactive are those of the source. No cut-off for these calls is given here.

Columns and labels:
[1] = Cytotoxicity against human KB-3-1 cells after 72 hrs by MTT assay; assay type: functional, cell-based; details: KB 3-1, 72 h
HEK293 [2] = experiment: Cytotoxicity against human HEK293 cells after 72 hrs by MTT assay; assay type: functional, cell-based; details: HEK293, 72 h
[3] = Cytotoxicity against human H460 cells after 72 hrs by MTT assay; assay type: functional, cell-based; details: NCI-H460, 72 h
MCF7 [4] = experiment: Cytotoxicity against human MCF7 cells after 72 hrs by MTT assay; assay type: functional, cell-based; details: MCF7, 72 h
KB 3-1 = experiment: Cytotoxicity against human KB-3-1 cells assessed as inhibition of cell survival at 5 to 15 uM after 72 hrs by MTT assay relative to control; assay type: functional, cell-based
MCF7 [5] = experiment: Cytotoxicity against human MCF7 cells assessed as inhibition of cell survival at 5 to 15 uM after 72 hrs by MTT assay relative to control; assay type: functional, cell-based
NCI-H460 = experiment: Cytotoxicity against human H460 cells assessed as inhibition of cell survival at 5 to 15 uM after 72 hrs by MTT assay relative to control; assay type: functional, cell-based
HEK293 [6] = experiment: Cytotoxicity against human HEK293 cells assessed as inhibition of cell survival at 5 to 15 uM after 72 hrs by MTT assay relative to control; assay type: functional, cell-based
HEK293 [7] = experiment: Cytotoxicity against human HEK293 cells assessed as inhibition of cell survival at 0.5 uM after 72 hrs by MTT assay relative to control; assay type: functional; details: HEK293, 72 h
[8] = Cytotoxicity against human H460 cells assessed as inhibition of cell survival at 0.5 uM after 72 hrs by MTT assay relative to control; assay type: functional; details: NCI-H460, 72 h
MCF7 [9] = experiment: Cytotoxicity against human MCF7 cells assessed as inhibition of cell survival at 0.5 uM after 72 hrs by MTT assay relative to control; assay type: functional; details: MCF7, 72 h

Compound	IC50 [1]	IC50 (HEK293 [2])	IC50 [3]	IC50 (MCF7 [4])	inhibition (KB 3-1)	inhibition (MCF7 [5])	inhibition (NCI-H460)	inhibition (HEK293 [6])	inhibition at 0.5 µM (HEK293 [7])	inhibition at 0.5 µM [8]	inhibition at 0.5 µM (MCF7 [9])
CCCCCCCCCCCCCCCCCC(=O)Oc1ccc(C(=O)c2cc(OC)c(OC)c(OC)c2)cc1OC	16900 nM	15600 nM	17600 nM	26900 nM							
COc1cc2c(c(OC)c1OC)-c1ccc(OC)c(=O)cc1[C@@H](NC(C)=O)CC2 [COLCHICINE]	18 nM	9 nM		19 nM							
CCCCCCCC/C=C\CCCCCCCC(=O)Oc1ccc(C(=O)c2cc(OC)c(OC)c(OC)c2)cc1OC	1720 nM	2360 nM	2200 nM	2170 nM							
CCCCC/C=C\C/C=C\CCCCCCCC(=O)Oc1ccc(C(=O)c2cc(OC)c(OC)c(OC)c2)cc1OC	547 nM	903 nM	867 nM	745 nM	Active	Active	Active	Active			
COc1cc(C(=O)c2cc(OC)c(OC)c(OC)c2)ccc1O [ISOPHENSTATIN]	146 nM	196 nM	188 nM	199 nM							
CCCCC/C=C\C/C=C\CCCCCCCC(=O)Oc1cc(C(=O)c2cc(OC)c(OC)c(OC)c2)ccc1OC	163 nM	210 nM	176 nM	181 nM					20%	20%	20%
CCCCCCCCCCCCCCCCCC(=O)Oc1cc(C(=O)c2cc(OC)c(OC)c(OC)c2)ccc1OC	2780 nM	2640 nM	4700 nM	3350 nM							
CCCCCCCC/C=C\CCCCCCCC(=O)Oc1cc(C(=O)c2cc(OC)c(OC)c(OC)c2)ccc1OC	786 nM	950 nM	909 nM	943 nM							
COc1ccc(C(=O)c2cc(OC)c(OC)c(OC)c2)cc1O [PHENSTATIN]	15 nM	23 nM	20 nM	19 nM							
